Experimental data from article PMC12579162, “Synthesized Depside Molecules Suppress the Progression of Colorectal Cancer by Binding VDAC1/PHB/MMP9 Being at the Crossroads of Stemness, Motility, Apoptosis, and Metabolism” (MedComm, 2025).
Read-outs that look alike come from different tables or passages of the source.

Assays:
HaCaT cells = test: MTT cell viability, HaCaT; type: cell-based; conditions: Homo sapiens, 48 h, MTT assay
Method: (§1) Cells (3 × 10^3 cells/well) were seeded on a 96‐well plate, grown overnight, and then treated with compounds at indicated concentrations for 48 h. After incubation with MTT for 4 h at 37°C, cells were lysed with 150 µL of DMSO (Sigma–Aldrich, St. Louis, USA). Absorbance was measured at 570 nm on a microplate reader with the Gen5 software (v.2.03.1; BioTek, Winooski, VT, USA).

CRC cells = test: Transwell invasion assay; type: cell-based, human; conditions: 5 µM, 24 h, versus vehicle-treated control
caspase 3/7 in CRC cells = test: Caspase-Glo 3/7 activity; type: cell-based, human; conditions: 10 µM, 48 h, relative to DMSO
Method: Caspase 3/7 activity was determined with a Caspase-Glo 3/7 assay kit (Promega). CRC cells were seeded in 96 well plates, 10000 per well cells, with media containing 2% FBS. Treatments were applied after overnight incubation, incubated for 48 hours. After treatment, Caspase-Glo reagent was added to each well and incubated in the dark for 1 hour. […] was recorded with the GloMax® Microplate Reader.

CRC cell lines = test: Apoptosis / cell death analysis; type: cell-based, human
Method: (§2) Cells were cultured in a six‐well plate at the density of 2 × 10^5 cells/well until adherence. Cells were treated with DMSO or compound for 48 h. Apoptosis or cell cycle experiments were then performed. For apoptosis analysis, cells were harvested and washed with PBS, resuspended in 100 µL of 1× binding buffer followed by staining with 4 µL of Annexin V–FITC (BD, Biosciences, San Jose, CA, USA), and 8 µL of 50 µg/mL propidium iodide (PI; BD Biosciences, San Jose, CA, USA) for 30 min in the dark. For cell cycle analysis, cells were washed with FACS washing buffer, incubated with trypsin solution, followed by RNase A for 10 min at room temperature. Cells were centrifuged and pellets were collected and stained with 100 µL of 4 mg/mL PI (Sigma–Aldrich) for 2 h in the dark at 4°C. Cells were detected by flow cytometry on a CytoFLEX instrument (Beckman Coulter Life Sciences, Indianapolis, IN, USA).

CT26 cells = test: MTT cell viability, CT26; type: cell-based; conditions: Mus musculus, 48 h, MTT assay
Method: as §1

[1] = tested on: CSC221, DLD1, CaCo2, HT29, HCT116, and SW620 cells; test: Seahorse XF Cell Mito Stress Test; type: cell-based, human; conditions: 5 µM, 48 h
Method: Seahorse XF96 extracellular flux analyzer (Agilent, Santa Clara, CA, USA) was used for glycolytic rate and cell mito stress test assays. Cells were seeded at 1 × 10^4 cells/well, incubated overnight in culture medium (2% FBS), and then treated with DMSO or compound for 48 h. The plated cells were twice washed and loaded (180 µL) with assay media enhanced with glutamine, sodium pyruvate, and glucose on the day of analysis. Before analysis, the cells were incubated for 1 h at 37°C in a non‐CO2 incubator. Then, cell mito stress, mito tox, or glycolytic rate assay was tested. Agilent Seahorse XF Mito Stress Test Kit was utilized in accordance with Agilent Seahorse's standard methodology. This test examines the OCR of cells directly, which provides important information on mitochondrial function. First, 1 µM oligomycin (inhibits ATP synthase) was injected. The second injection was FCCP (1 µM), an uncoupling agent that compresses the proton gradient and disturbs the mitochondrial membrane potential. Last injection with 0.5 µM Rotenone (Rot; a complex I inhibitor) + antimycin A (AA; a complex III inhibitor) was loaded for OCR analysis. Agilent Seahorse XF Glycolytic Rate Assay was utilized in accordance with Agilent Seahorse's standard methodology. […] The results were analyzed using the Wave software (Agilent).

[2] = tested on: CaCo2, DLD1, HT29, HCT116, and SW620 cells; test: Cell cycle analysis by flow cytometry; type: cell-based, human; conditions: 10 µM, 48 h
Method: as §2

HCT116 cells = test: MTT cell viability, HCT116; type: cell-based; conditions: Homo sapiens, HCT-116; 48 h, MTT assay
Method: as §1

HT29 cells = test: MTT cell viability, HT29; type: cell-based; conditions: Homo sapiens, HT-29; 48 h, MTT assay
Method: as §1

[3] = Tissue distribution in CT26 tumor-bearing mice (LC–MS/MS); type: in vivo; conditions: Balb/c mice, 10 mg/kg; for distribution in tumor and intestines: 24 h, compared with TU and DA; for concentration at 24 h: mouse
Method: Concentrations of TU, DA, SB4, and SB5 in tissues (liver, intestine, and tumor) and plasma were measured using LC–MS/MS. Samples were prepared by 40 µL of plasma or the supernatant separated from the tissue pellet and added 120 µL of acetonitrile (ACN) containing internal standard (IS). The samples were vortexed, sonicated for 30 min, and then left on ice for 15 min. Subsequently, the samples were centrifuged at 3000×g for 20 min, and the supernatant was analyzed. Calibration curves were prepared by matrix matched with tissue supernatants‐treated DMSO. The standard concentrations were set at 0, 62.5, 250, and 1000 nM for each compound. The LC–MS/MS system comprised a 40D‐XS UHPLC system (Shimadzu), and API 4000 mass spectrometer equipped with a Turbo V IonSpray source (Applied Biosystems). The sample separation was performed on a Waters Atlantis dC18 column (2.1 × 100 mm, 3 µm) using a mobile phase consisting of 0.1% formic acid in water (mobile phase A) and 0.1% formic acid in ACN (mobile phase B). A linear gradient of the two solvents was used (0 min, 0% B; 4 min, 50% B; 7 min, 95% B; 8 min, 0% B), and the equilibration time was 2 min. The flow rate was set at 0.4 mL/min, the column temperature was maintained at 30°C, and the injection volume was 10 µL.
MS/MS analysis was conducted in multiple reaction monitoring (MRM). In positive ion mode transitions were set for DA (m/z 375 → 193), SB4 (m/z 447 → 193), SB5 (m/z 461 → 193), and the IS carbamazepine (100 nM, m/z 237 → 197). In negative ion mode, MRM transitions were monitored for TU (m/z 339 → 217) and the IS 4‐methylumbelliferone (300 nM, m/z 175 → 133). The Turbo V Ion Spray interface was operated in 5500 V (pos) or −4500 V (neg), with a source temperature of 600°C. Nebulizing gas flow, auxiliary gas flow, and curtain gas flow were set at 50, 40, and 30 L/min, respectively, while the collision gas pressure was maintained at 3.4 × 10^−⁵ Torr. Data were analyzed by analyst 1.6.2 (AB Sciex, Framingham, USA).

[4] = liver, read-out: concentration in liver
[5] = plasma, read-out: quantity in plasma

| Compound | IC50 (HaCaT cells) [µM] | number of invaded cells (CRC cells) | caspase 3/7 activity (caspase 3/7 in CRC cells) | concentration with cell death ability (CRC cell lines) [µM] | IC50 (CT26 cells) [µM] | oxygen consumption rate (OCR) [1] | cell-cycle distribution [2] | IC50 (HCT116 cells) [µM] | IC50 (HT29 cells) [µM] | distribution in tumor and intestines [3] | concentration at 24 h [3, 4] [nM] | concentration at 24 h [3, 5] [nM] |
| --- | --- | --- | --- | --- | --- | --- | --- | --- | --- | --- | --- | --- |
| COCCOc1c(C)c(OC(=O)c2c(C)cc(OC)c(C)c2OC)cc(C)c1C(=O)OC [SB4, 4-(Methoxycarbonyl)-3-(2-methoxyethoxy)-2,5-dimethylphenyl 2,4-dimethoxy-3,6-dimethylbenzoate] | 26.7 | significantly reduced the number of invaded cells | induced | ~10 | 5.33 | dramatically suppresses the oxygen consumption rate (OCR) | induced Sub G1 and G2/M populations while G1 population decreased | 11.7 | 3.95 | bioavailability is improved compared with TU and DA | 1 to 2 | < 2 |
| COCCCOc1c(C)c(OC(=O)c2c(C)cc(OC)c(C)c2OC)cc(C)c1C(=O)OC [SB5, 4-(Methoxycarbonyl)-3-(3-methoxypropoxy)-2,5-dimethylphenyl 2,4-dimethoxy-3,6-dimethylbenzoate] | 70.7 | significantly reduced the number of invaded cells | induced | ~10 | 2.27 | dramatically suppresses the oxygen consumption rate (OCR) | induced Sub G1 and G2/M populations while G1 population decreased | 4.5 | 7.47 | bioavailability is improved compared with TU and DA | 1 to 2 | < 2 |
